Data taken from US20090111795A1, “Multimers of Heterocyclic Compounds and Their Use” (priority 2005, published 2009).

**Q.** For `CCOC(=O)C1=C(C)N(c2cccc(C(F)(F)F)c2)C(=O)N(CC(=O)NCC[N+](C)(C)CCNC(=O)CN2C(=O)N(c3cccc(C(F)(F)F)c3)C(C)=C(C(=O)OCC)[C@H]2c2ccc(C#N)cc2)[C@@H]1c1ccc(C#N)cc1.O=C([O-])CCC(=O)O`, which melting point is on record?
**A.** 138 to 143 °C
